According to PubChem BioAssay (NCI):
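Test compounds were applied to cells in 96-well plates for 48 hours at 5 doses. TGI marks complete inhibition of growth.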

Legend:
Assay in all cases: NCI-60 cell line screen, 48 h
A498 renal = test system: A498 renal
CAKI-1 renal = test system: CAKI-1 renal
HCT-116 colon = test system: HCT-116 colon
HL-60(TB) leukemia = test system: HL-60(TB) leukemia
HOP-92 NSCLC = test system: HOP-92 NSCLC
MOLT-4 leukemia = test system: MOLT-4 leukemia
OVCAR-4 ovarian = test system: OVCAR-4 ovarian
RPMI-8226 leukemia = test system: RPMI-8226 leukemia
SK-MEL-5 melanoma = test system: SK-MEL-5 melanoma
UO-31 renal = test system: UO-31 renal

| Structure (SMILES) | TGI (A498 renal) | TGI (CAKI-1 renal) | TGI (HCT-116 colon) | TGI (HL-60(TB) leukemia) | TGI (HOP-92 NSCLC) | TGI (MOLT-4 leukemia) | TGI (OVCAR-4 ovarian) | TGI (RPMI-8226 leukemia) | TGI (SK-MEL-5 melanoma) | TGI (UO-31 renal) |
| --- | --- | --- | --- | --- | --- | --- | --- | --- | --- | --- |
| CCN(CC)CCn1ncc2ccc3c(c(=O)c4cccnc4n3CCN(CC)CC)c21 | 2.24 µM | 9.71 µM | > 5.81 µM | 2.83 µM | 4.37 µM | 1.43 µM | 2.87 µM | 4.21 µM | 2.38 µM | > 8.52 µM |
| C=CCCCCOC1C=CC(OC(C)=O)C(COC(C)=O)O1 (stereo not given) | > 100 µM | > 100 µM | > 100 µM | > 100 µM | > 100 µM | > 100 µM | > 100 µM | > 100 µM | > 100 µM | > 100 µM |
| CCCCCCCCCc1cc(O)c(O)cc1CCCCCCCCC | > 10 µM | > 10 µM | > 10 µM | > 10 µM | > 10 µM | > 10 µM | > 10 µM | > 10 µM | > 10 µM | > 10 µM |
| COC1/C=C/C(C)C(OC)CC(O)/C=C/C(C)C(C(C)C(OC)C(C)CCC(=O)C(C)C(C/C=C/N(C)C=O)OC)OC(=O)/C=C/C=C(\C)CC(OC)C(OC)C2=CC(=O)O[C@@H](C(C)C(OC)C1)[C@H]2O (stereo not given in full) | 0.0614 µM | 0.0526 µM | 0.0613 µM | > 25 µM | 0.0773 µM | > 9.73 µM | 1.41 µM | 3.24 µM | 0.0763 µM | 0.0761 µM |
| CCN(CC)CCNc1ccc([N+](=O)[O-])c2nc3ccccc3c(N)c12 | 2.91 µM | > 10 µM | 1.5 µM | 2.11 µM | 5.84 µM | 2.23 µM | 1.48 µM | 6.18 µM | 1.1 µM | 5.94 µM |
| CCOC(=O)c1ccc(N=C2SC(=S)N(c3ccc(F)cc3)C2=Nc2ccc(C(=O)OCC)cc2)cc1 | > 100 µM | 37.8 µM | 41.6 µM | 22.3 µM | 26 µM | 35.1 µM | 33.4 µM | 51.3 µM | 25.1 µM | 28 µM |
| CCOC(=O)C(SCCO)C(C(=O)OCC)n1ccc(N)nc1=O (stereo not given) | > 100 µM | > 100 µM | > 100 µM | > 100 µM | > 100 µM | > 100 µM | > 100 µM | > 100 µM | > 100 µM | > 100 µM |
| Cc1c2c(c(C)c3c[n+](C)ccc13)Oc1ccccc1O2 | > 100 µM | > 100 µM | > 67.9 µM | 39.4 µM | 99.8 µM | 23.8 µM | 28.2 µM | 12.7 µM | 42.5 µM | > 100 µM |
| CCOC(=O)C(Cc1ccc2c(c1)CCC2)(Cc1ccc2c(c1)CCC2)C(=O)OCC | > 100 µM | > 100 µM | > 100 µM | > 100 µM | > 100 µM | 78.4 µM | > 100 µM | > 100 µM | > 100 µM | > 100 µM |
| Oc1c(C(O)(c2ccccc2)c2ccc3ccccc3c2O)ccc2ccccc12 | 30.6 µM | 33.8 µM | 21.8 µM | 13.9 µM | 24.1 µM | 5.56 µM | > 47.8 µM | 5.32 µM | 18 µM | 24.7 µM |
| C#CCNC(=O)CCC(N)C(=O)O (stereo not given) | > 100 µM | > 100 µM | > 100 µM | > 100 µM | > 100 µM | > 100 µM | > 100 µM | > 100 µM | > 100 µM | > 100 µM |
| CC(=O)OCC1C(C(C)OC(C)=O)CCC2C1CCC1(C)C(OC(C)=O)CCC21 (stereo not given) | 41.4 µM | > 100 µM | 29.2 µM | 52.6 µM | 37.4 µM | 41.8 µM | 39.6 µM | 69.9 µM | 30.6 µM | > 100 µM |
| CN1CN(c2ccccc2)C2(CCNCC2)C1=O | > 100 µM | > 100 µM | > 100 µM | > 100 µM | > 100 µM | > 100 µM | > 100 µM | > 100 µM | > 100 µM | > 100 µM |
| COc1ccc2c(=O)c([Se]c3coc4cc(OC)ccc4c3=O)coc2c1 | > 100 µM | > 100 µM | 44.1 µM | > 100 µM | > 100 µM | > 100 µM | > 100 µM | > 100 µM | > 100 µM | > 100 µM |
